Laboratory results published in patent publication US20230310531A1, “TRIPTERYGIUM WILFORDII COMPOSITION FOR INHIBITING DRUG-RESISTANT CANCER, AND PREPARATION METHOD AND USE THEREOF” (HUAQIAO UNIVERSITY, priority 2022, published 2023).
Where two headings read alike, the source gives them in different places.

Key:
Assay type in all cases: cell-based, human
H460/DDP cells = experiment: MTT cell proliferation inhibition, H460/DDP cells; conditions: for IC50: H460/DDP cells; for Combination index (CI): H460/DDP
Method: (§1) The cisplatin-resistant cells of non-small cells, lung cancer cells A549 and H1299 and human large cells, lung cancer cells H460 (that is, A549/DDP, H1299/DDP, and H460/DDP), as well as normal human lung bronchial epithelial cells 16HBE were used as cultured cells. All the cells were cultured with a PRMI-1640 complete medium at 37° C. with a CO2 concentration of 5%. Three kinds of cell models were established by culturing the above cells to a certain amount.
(§2) The three kinds of cells in a logarithmic growth phase obtained in step 1 were separately inoculated in a 96-well plate at a density of 5×10^4 cells/mL. 90 μL of the cells were added to each well, and a complete medium as a blank control group, a DMSO negative control, a TP positive control, and experimental groups with different concentrations of compounds were set up. Three replicate wells were set up in each group, and the cells were cultured in a carbon dioxide incubator for 24 h. Drugs were added in a volume of 10 μl to each well, such that final concentrations were 10 μg/ml, 20 μg/ml, 30 μg/ml, 40 μg/ml, and 50 μg/ml. After culturing for 24 h, 48 h, and 72 h, 10 μl of an MTT solution was added to each well. After incubation for 4 h, the medium in each well was aspirated, and 100 μl of DMSO was added. The culture plate was placed in a microplate reader and shaken for 5 min to dissolve crystals. The cells were put into a microplate reader for detection, and a detection wavelength was set to OD=490 nm and a reference wavelength OD=630 nm to measure an absorbance of each well.
(§3) Relative cell viability (%)=((OD value of drug experimental group−OD value of blank control group)/(OD value of negative control group−OD value of blank control group))×100%.
(§4) Relative cell inhibition rate (%)=(1−relative cell viability)×100%.
(§5) The formula for calculating a combination index (CI) was as follows: […]
(§6) In the formula, (Dx)1, (Dx)2, and (Dx)3 represented the drug doses used alone, while (D)1, (D)2, and (D)3 represented the […] contributed by the respective drugs in the combination. […] When CI<1, there was a synergistic effect; when CI>1, there was an antagonistic effect; and when CI=1, there was […].
(§7) A calculation method of IC50 was as follows: SPSS software was used for calculation: after entering the SPSS data editor, the (Variable View) was activated to define variables, and under the variable name (Name), informations were input as follows: “dose/concentration”, “inhibition rate”, “total value”. A parameter Analysis Regression Probit was selected, the “Probit Analysis” dialog box was brought up, the “Dose/Concentration” was selected into the “Covariates” column, the “Inhibition Rate” was selected into the “Response Frequency” column, and the “Total Value” was selected into the “Total Observed” column. In the “Transform” column, “Log base 10” was selected; in the “Mode 1” column, the “Probit” probability unit model was selected; and in the “Options” column, “Calculate from Data” was selected.
The experimental design, the five compounds, and a method for determining the inhibitory effect on cisplatin-resistant cells H460/DDP were the same as those in Example 1.

A549/DDP cells = experiment: MTT cell proliferation inhibition, A549/DDP cells; conditions: for cell inhibition rate increased, two drugs combined compared with the single drug group: TP 4 μg/ml plus compound (E 1, H 11, I 0.9, J 2, P 20 μg/ml), equal volume ratio; for IC50: compound alone
Method: as §1, §2, §3, §4, §5, §6, §7
When drugs were used in combination, the TP was compatible with any one or any two of the compounds E, H, I, J, and P separately in an equal volume ratio.

H1299/DDP cells = experiment: MTT cell proliferation inhibition, H1299/DDP cells; conditions: for Combination index (CI) / drug effect increased compared with TP alone: H1299/DDP; for drug effect increased compared with TP alone: used in combination with the TP
Method: as §1, §2, §3, §4, §5, §6, §7
The experimental design, the five compounds, and a method for determining the inhibitory effect on cisplatin-resistant cells H1229/DDP were the same as those in Example 1.

[1] = 48 h, compound alone (FIGS. 1A-R)
[2] = 48 h, TP 2.5 μg/ml, compound at higher dose (E 2, H 22, I 1.8, J 4, P 40 μg/ml)
[3] = 48 h, TP 2.5 μg/ml, compound at lower dose (E 1, H 11, I 0.9, J 2, P 20 μg/ml)
[4] = 48 h, TP 5 μg/ml, compound at higher dose (E 2, H 22, I 1.8, J 4, P 40 μg/ml)
[5] = 48 h, TP 5 μg/ml, compound at lower dose (E 1, H 11, I 0.9, J 2, P 20 μg/ml)
[6] = A549/DDP, TP 2.5 μg/ml, compound at higher dose (E 2, H 22, I 1.8, J 4, P 40 μg/ml)
[7] = A549/DDP, TP 2.5 μg/ml, compound at lower dose (E 1, H 11, I 0.9, J 2, P 20 μg/ml)
[8] = A549/DDP, TP 5 μg/ml, compound at higher dose (E 2, H 22, I 1.8, J 4, P 40 μg/ml)
[9] = A549/DDP, TP 5 μg/ml, compound at lower dose (E 1, H 11, I 0.9, J 2, P 20 μg/ml)
[10] = Homo sapiens, NCI-H460, 48 h, compound alone (FIGS. 1A-R), read-out: IC50
[11] = Homo sapiens, A549 cells (A549/DDP per FIG. 2 legend), 48 h, read-out: IC50
[12] = Homo sapiens, NCI-H1299, H1299/DDP, in combination with TP 2.5 μg/ml, read-out: IC50 concentrations doses
[13] = Homo sapiens, NCI-H1299, H1299/DDP, in combination with TP 5 μg/ml, read-out: IC50 concentrations doses

Row | Structure (SMILES) | IC50 (H460/DDP cells; [1]) [µg/mL] | Combination index (CI) (H460/DDP cells; [2]) | Combination index (CI) (H460/DDP cells; [3]) | Combination index (CI) (H460/DDP cells; [4]) | Combination index (CI) (H460/DDP cells; [5]) | cell inhibition rate increased, two drugs combined compared with the single drug group (A549/DDP cells; A549/DDP, 48 h) [times] | Combination index (CI) (A549/DDP cells; [6]) | Combination index (CI) (A549/DDP cells; [7]) | Combination index (CI) (A549/DDP cells; [8]) | Combination index (CI) (A549/DDP cells; [9]) | Combination index (CI) (H1299/DDP cells; [2]) | Combination index (CI) (H1299/DDP cells; [3]) | Combination index (CI) (H1299/DDP cells; [4]) | drug effect increased compared with TP alone (H1299/DDP cells) [times] | IC50 (H460/DDP cells; [10]) [µg/mL] | IC50 (A549/DDP cells; [11]) [µg/mL] | Combination index (CI) (H1299/DDP cells; [5]) | IC50 (H1299/DDP cells; [12]) [µg/mL] | IC50 (H1299/DDP cells; [13]) [µg/mL] | other results
1 | C[C@@]1(C(=O)O)CC[C@]2(C)CC[C@]3(C)C4=CC(=O)c5c(cc(O)c(O)c5C=O)[C@]4(C)CC[C@@]3(C)[C@@H]2C1 [Compound H, Demethylzeylasteral] | 22.31 | 0.5569 | 0.7051 | 0.4270 | 0.6318 | 1.54 | 0.7225 | 0.8749 | 0.7206 | 1.1462 | 0.9651 | 0.8151 | 0.8689 | 2.12 | – | – | – | – | – | –
2 | CC(C)c1ccc2c(c1O)CC[C@H]1C(C)(C)[C@@H](O)CC[C@]21C [Compound P, Triptobenzene B] | – | 0.1961 | 0.2435 | 0.2976 | 0.3777 | 1.34 | 1.2660 | 1.0764 | 1.4985 | 1.1918 | 1.1079 | 1.7041 | 0.9326 | – | 39.2 | 6.72 | 0.6521 | 12 | 11 | IC50 (H1299/DDP cells; Homo sapiens, NCI-H1299, 48 h, H1299/DDP cells, 48 h, compound alone (FIGS. 5A-E), read-out: IC50): 12.8 µg/mL
3 | CC(C)c1ccc2c(c1)CCC1C(C)(CO)C(=O)CCC21C (stereo not shown) [Compound I, Triptobenzene R] | 1.893 | 1.2499 | 1.1241 | 0.7619 | 0.9327 | 1.81 | 0.8583 | 1.3864 | 0.8288 | 0.8316 | 1.1259 | 0.7373 | 1.1503 | – | – | – | 0.8353 | – | – | inhibitory effect compared with TP (A549/DDP cells; A549/DDP, 48 h, compound alone (FIGS. 3A-E)): better inhibitory effect on cells than that of the TP; IC50 (H1299/DDP cells; H1299 cells (H1299/DDP per FIG. 2 legend), 48 h, compound alone): 8.61 µg/mL
4 | CC(C)[C@]12O[C@H]1[C@@H]1O[C@]13[C@]1(O[C@H]1C[C@H]1C4=C(CC[C@@]13C)C(=O)OC4)[C@@H]2O [TP, triptolide, reference compound] | – | – | – | – | – | – | – | – | – | – | – | – | – | – | 1.97 | – | – | – | – | IC50 (A549/DDP cells; Homo sapiens, A549/DDP, A549DDP cells, read-out: IC50 value of A549DDP cells used as a synergistic dose): 7.83 µg/mL
5 | CC(C)c1ccc2c(c1)C(=O)C[C@H]1[C@@](C)(CO)[C@@H](O)CC[C@]21C [Compound J, (3S,4S,5R,10S)-3,19-dihydroxy-7-ox-oabieta-8,11,13-triene] | – | 0.3260 | 0.5384 | 0.3064 | 0.6519 | 1.58 | 0.9025 | 0.9333 | 0.9982 | 0.6952 | 0.9855 | 0.6741 | 0.5884 | – | 4.32 | 6.92 | 0.6735 | 1.84 | 0.9 | IC50 (H460/DDP cells; Homo sapiens, NCI-H460, 48 h, compound alone (FIGS. 7A-E), read-out: IC50): 0.61 µg/mL; inhibition rate of combination with TP, times higher than TP alone (A549/DDP cells; A549/DDP, combination with TP): 1.32 times
6 | CC(=O)OCC12C(OC(=O)C=Cc3ccccc3)CCC(C)(O)C13OC(C)(C)C(C(OC(C)=O)C2OC(=O)c1cccnc1)C3OC(C)=O (stereo not drawn) [Compound E, 1β-(E-cinnamoyloxy)-4a-hydroxy-5a,7β,11-triacetoxy-8β-nicotinoyloxy-dihydroagarofuran] | 1.98 | 0.6604 | 1.4669 | 0.5008 | 1.1134 | 2.01 | 1.1269 | 0.8986 | 1.1213 | 0.8688 | 1.1646 | 0.7473 | 0.8025 | 2.15 | – | – | – | – | – | IC50 (H460/DDP cells; 48 h, compound alone (FIGS. 7A-E)): 0.58 µg/mL; IC50 (A549/DDP cells; A549 cells (A549/DDP per FIG. 2 legend), 48 h): 5.03 µg/mL
